Assay: xn = mol fraction of the nth substance listed

CCCCCC[n+]1ccn(C)c1.[Cl-] + OCCO
101 kPa
Conditions	viscosity [mPa·s]
293.15 K, x2 = 0.4977	172.9
293.15 K, x2 = 0.6002	83.9
303.15 K, x2 = 0	4206
313.15 K, x1 = 0.0188	10.05
313.15 K, x2 = 0.6987	21.31
313.15 K, x2 = 0.8897	11.47
313.15 K, x2 = 0.9642	10.19
313.15 K, x2 = 0.9761	10.09
323.15 K, x1 = 0.0061	7.09
323.15 K, x2 = 0	783
323.15 K, x2 = 0.6002	24.77
323.15 K, x2 = 0.6987	15.34
323.15 K, x2 = 0.8998	8.19
323.15 K, x2 = 0.9642	7.38
333.15 K, x1 = 0.0061	5.28
333.15 K, x2 = 0.1526	191.8
333.15 K, x2 = 0.4977	29.57
333.15 K, x2 = 0.6987	11.45
333.15 K, x2 = 0.9532	5.61

CC(=O)[O-].Cn1cc[n+](CCO)c1 + O
100 kPa
Conditions	viscosity [mPa·s]
293.15 K, x1 = 0.9003	93.9
298.15 K, x1 = 0.8317	41.2
298.15 K, x1 = 0.8712	56.8
303.15 K, x1 = 0.8317	32
303.15 K, x1 = 0.8712	43.6
308.15 K, x1 = 0.8317	25.4
308.15 K, x1 = 0.8818	36.7
313.15 K, x1 = 0.8632	25.8
313.15 K, x1 = 0.8712	26.6
313.15 K, x1 = 0.8818	29
323.15 K, x1 = 0.8818	19.3
328.15 K, x1 = 0.8712	14.72
333.15 K, x1 = 0.8818	13.46
333.15 K, x1 = 0.9003	14.78

Cn1cc[n+](CCO)c1.O=S(=O)([O-])C(F)(F)C(F)(F)C(F)(F)C(F)(F)F + O
101 kPa
Conditions	electrical conductivity [S/m]	viscosity [mPa·s]
298.15 K, x1 = 0.02322	4.64	2.48
298.15 K, x1 = 0.02741	4.83	2.81
298.15 K, x1 = 0.05114	–	5.32
298.15 K, x1 = 0.05966	–	6.3
298.15 K, x1 = 0.09831	4.54	11.5
298.15 K, x1 = 0.1816	2.58	27.4
298.15 K, x1 = 0.6778	0.116	256
308.15 K, x1 = 0.04384	–	3.39
308.15 K, x1 = 0.0644	–	5.13
308.15 K, x1 = 0.06999	–	5.73
308.15 K, x1 = 0.07565	–	6.11
308.15 K, x1 = 0.08994	–	7.61
308.15 K, x1 = 0.1303	–	11.95
308.15 K, x1 = 0.1442	–	13.84
308.15 K, x1 = 0.2068	–	21.6
308.15 K, x1 = 0.3955	–	53.9
318.15 K, x1 = 0.02322	–	1.601
318.15 K, x1 = 0.03214	–	2.096
318.15 K, x1 = 0.04384	–	2.67
318.15 K, x1 = 0.05966	–	3.7
318.15 K, x1 = 0.09831	–	6.23
318.15 K, x1 = 0.1303	–	8.76
318.15 K, x1 = 0.2329	–	17.91

c1c[nH]cn1 + CC(C)C[P+](C)(CC(C)C)CC(C)C.Cc1ccc(S(=O)(=O)[O-])cc1
Conditions	viscosity [mPa·s]
313.09 K, 101.33 kPa, x2 = 0.5	181

COCCOCCOC + CCCC[n+]1ccn(C)c1.F[P-](F)(F)(F)(F)F
100 kPa
Conditions	viscosity [mPa·s]
283.15 K, x2 = 0.2056	7.206
283.15 K, x2 = 0.5857	63.81
283.15 K, x2 = 0.8057	237.7
283.15 K, x2 = 0.8992	407
293.15 K, x2 = 0.1028	2.611
293.15 K, x2 = 0.4923	23.24
293.15 K, x2 = 0.5839	39.17
293.15 K, x2 = 0.9523	295.7
303.15 K, x2 = 0.0572	1.283
303.15 K, x2 = 0.3956	8.98
303.15 K, x2 = 0.7842	65.7
313.15 K, x2 = 0.3979	4.083
313.15 K, x2 = 0.5861	13.01

CC[n+]1ccccc1.N#C[N-]C#N + O
100 kPa
Conditions	electrical conductivity [S/m]	viscosity [mPa·s]
298.15 K, x1 = 0.9411	2.15	–
298.15 K, x1 = 0.9677	1.94	–
298.15 K, x2 = 0.01044	–	16.52
303.15 K, x1 = 0.9542	2.27	–
303.15 K, x1 = 0.9756	–	13.97
308.15 K, x1 = 0.9542	2.58	–
308.15 K, x2 = 0.01044	–	12.55
313.15 K, x1 = 0.9355	–	10.08
313.15 K, x1 = 0.9619	–	10.49
313.15 K, x1 = 0.9677	2.82	–
313.15 K, x2 = 0.01044	–	11.02
318.15 K, x1 = 0.9542	3.25	–
323.15 K, x1 = 0.9756	–	8.27
328.15 K, x1 = 0.9756	–	7.44
333.15 K, x1 = 0.9283	4.91	–
333.15 K, x1 = 0.9411	4.81	–
333.15 K, x1 = 0.9677	4.61	–
338.15 K, x1 = 0.9355	–	5.76
338.15 K, x1 = 0.9485	–	5.86
338.15 K, x1 = 0.9756	–	6.1

Reference: the CheMixHub ionic liquid set
